Assay results: US7960397B2, “6,9-disubstituted purine derivatives and their use as cosmetics and cosmetic compositions” (Institute of Experimental Botany, Academy of Sciences of …, priority 2007, dated 2011)

Assays:
[1] = tested on: cytokinin-dependent tobacco callus Nicotiana tabacum L. cv. Wisconsin 38; experiment: Cytokinin activity in tobacco callus bioassay; assay type: cell-based; conditions: for concentration with highest activity: growth of tobacco callus, four weeks of cultivation, tested 10^−8 M to 10^−4 M; for Activity (%) [10^−5 mol · l^−1 BAP = 100%]: increase of fresh callus weight at the concentration with highest activity, 10^−5 M BAP = 100%
Procedure: Estimation of cytokinin biological activity of novel compounds in callus bioassay. Cytokinin-dependent tobacco callus Nicotiana tabacum L. cv. […] Subcultivation was carried out every three weeks. Fourteen days before the bioassay, the callus tissue was transferred to the media without the compound tested. The biological activity was determined from the increase of the fresh callus weight after four weeks of cultivation. Five replicates were prepared for each concentration of the compound tested and the entire test was repeated twice. […] The relative activity of the compound at this concentration was calculated (Table 8). […] The compounds to be tested were dissolved in dimethylsulfoxide (DMSO) and the solution brought up to 10^−3 M with distilled water. This stock solution was further diluted with the respective media used for the biotest to a concentration ranging from 10^−8 M to 10^−4 M.

[2] = tested on: Amaranthus caudatus cotyledon/hypocotyl explants; experiment: Amaranthus bioassay (betacyanin content); set-up: species or system Amaranthus caudatus var. atropurpurea; conditions: for concentration with highest activity: betacyanin content after 48 h incubation, tested 10^−8 M to 10^−4 M; for Activity (%) [10^−5 mol · l^−1 BAP = 100%]: betacyanin content at the concentration with highest activity, 10^−5 M BAP = 100%
Procedure: Testing of novel compounds for typical cytokinin activity in Amaranthus bioassay. A standard Amaranthus bioassay was performed with several modifications. The seeds of Amaranthus caudatus var. atropurpurea were surface-sterilized in 10% (w/v) N-chlorobenzenesulfonamide for 10 min and washed 5 times with deionized water. They were placed in 14 cm Petri dishes containing paper tissues saturated with deionized water. After 72 h of cultivation at 25° C. in darkness, the roots of the seedlings were cut off. The explants, consisting of two cotyledons and hypocotyls, were placed in 5 cm Petri dishes onto two layers of filter paper soaked with 1 ml of the incubation medium containing 10 mmol of NA2HPO4—KH2PO4, pH 6.8, 5 mmol of tyrosine and the compound to be tested. There were 20 explants per dish. The procedure was carried out under a green safe light in a darkroom. […] The concentration of betacyanin was determined from the absorbencies at 537 nm and 620 nm as follows: DA=A537 nm−A620 nm. […] Relative activity of the compound at this concentration was calculated. The activity obtained for 10^−5 M 6-benzylaminopurine (BAP) was defined as 100%.
(§1) The compounds to be tested were dissolved in dimethylsulfoxide (DMSO) and the solution brought up to 10^−3 M with distilled water.

excised wheat leaf tips = experiment: Antisenescence test, retention of chlorophyll in excised wheat leaf tips; set-up: species or system Triticum aestivum cv. Hereward; conditions: for activity (%) [10^−4 mol · l^−1 BAP = 100%]: retention of chlorophyll in excised wheat leaf tips at the concentration with highest activity, 10 replicate determinations; for concentration with highest activity: retention of chlorophyll in excised wheat leaf tips, tested range 10^−8 M to 10^−4 M, 96 h in the dark at 25° C.
Procedure: Testing of antisenescence properties of novel cytokinin compounds on wheat leaf segments. Seeds of winter wheat, Triticum aestivum cv. Hereward, were washed under running water for 24 hours and then sown on vermiculite soaked with the Knop's solution. They were placed in the grow chamber at 25° C. with a 16 h-8 h light period at 50 mmol.m^−2.s^−1. After 7 days, the first leaf was fully developed and the second leaf had started to grow. A 35 mm long tip section of the first leaf, was removed from each of 5 seedlings and trimmed slightly to a combined weight of 100 mg. The basal ends of the five leaf tips were placed in the wells of a microtiter polystyrene plate containing […] of the solution of the tested compound each. The entire plate was inserted into a plastic box lined with paper tissues soaked with distilled water to prevent leaf sections from drying out. After 96 h incubation in the dark at 25° C., the leaves were removed and chlorophyll was extracted by heating at 80° C. for 10 min in 5 ml of 80% ethanol (v/v). The sample volume was then restored to 5 ml by the addition of 80% ethanol (v/v). The absorbance of the extract was recorded at 665 nm. In addition, chlorophyll extracts from fresh leaves and leaf tips incubated in deionized water were measured. […] Relative activity of the compound at this concentration was calculated (Table 7). The activity obtained for 10^−4 M 6-benzylaminopurine (BAP) was defined as 100%. The values shown are means of five replicates and the whole experiment was repeated twice.
as §1

[3] = tested on: human diploid fibroblasts (HCA cells, HCA20, HCA40, HCA60); experiment: Senescent cells (β-galactosidase staining) in culture of human fibroblasts; assay type: cell-based; conditions: for SENESCENT CELLS (%) HCA20: human fibroblasts passage 20 (HCA20); for SENESCENT CELLS (%) HCA40: human fibroblasts passage 40 (HCA40); for SENESCENT CELLS (%) HCA60: human fibroblasts passage 60 (HCA60)
Procedure: In this example, human diploid fibroblasts (HCA cells of various passage levels: passage 20—designated HCA20; passage 40—designated HCA40; passage 60—designated HCA60) were stained for β-galactosidase activity. The medium used for the cell cultivation was removed, the cells were washed twice in […], and fixed in 2-3 ml of fixing solution comprised of a 2% formaldehyde and 0.2% glutaraldehyde in PBS. The cells were incubated at room temperature for 5 minutes, and then washed twice with PBS. The cells were subsequently incubated at 37° C.

SMILES | concentration with highest activity [1] | Activity (%) [10^−5 mol · l^−1 BAP = 100%] [1] | concentration with highest activity [2] | Activity (%) [10^−5 mol · l^−1 BAP = 100%] [2] | activity (%) [10^−4 mol · l^−1 BAP = 100%] (excised wheat leaf tips) | concentration with highest activity (excised wheat leaf tips) | SENESCENT CELLS (%) HCA20 [3] | SENESCENT CELLS (%) HCA40 [3] | SENESCENT CELLS (%) HCA60 [3]
Oc1ccccc1Nc1ncnc2c1ncn2C1CCCCO1 (stereo not drawn) [2-hydroxyanilino / tetrahydropyran-2-yl] | 10^−5 mol · l^−1 | 30% | 10^−4 mol · l^−1 | 65% | 11% | 10^−4 mol · l^−1 | 4% | 6% | 29%
Oc1cccc(Nc2ncnc3c2ncn3C2CCCCO2)c1 (stereo not drawn) [3-hydroxyanilino / tetrahydropyran-2-yl] | 10^−5 mol · l^−1 | 65% | 10^−4 mol · l^−1 | 122% | 23% | 10^−4 mol · l^−1 | 5% | 4% | 28%
Cc1ccc(O)c(CNc2ncnc3c2ncn3C2CCCCO2)c1 (stereo not drawn) | 10^−4 mol · l^−1 | 121% | 10^−4 mol · l^−1 | 68.4% | 82% | 10^−4 mol · l^−1 | 5% | 4% | 30%
Oc1ccccc1CNc1ncnc2c1ncn2C1CCCCO1 (stereo not drawn) [6-(2-hydroxybenzylamino)-9-(tetrahydropyran-2-yl)purine] | 10^−5 mol · l^−1 | 80% | 10^−4 mol · l^−1 | 41.6% | 23.6% | 10^−4 mol · l^−1 | 4% | 2% | 26%
COc1cc(Nc2ncnc3c2ncn3C2CCCCO2)cc(OC)c1O (stereo not drawn) | 10^−5 mol · l^−1 | 19% | 10^−4 mol · l^−1 | 10% | 28% | 10^−4 mol · l^−1 | 4% | 5% | 22%
Oc1cccc(CNc2ncnc3c2ncn3C2CCCCO2)c1 (stereo not drawn) [6-(3-hydroxybenzylamino)-9-(tetrahydropyran-2-yl)purine] | 10^−5 mol · l^−1 | 139% | 10^−4 mol · l^−1 | 105.1% | 133.1% | 10^−4 mol · l^−1 | 5% | 3% | 25%
COc1cc(O)cc(OC)c1Nc1ncnc2c1ncn2C1CCCCO1 (stereo not drawn) | 10^−5 mol · l^−1 | 15% | 10^−4 mol · l^−1 | 8% | 14% | 10^−4 mol · l^−1 | 4% | 6% | 24%
